From US11896604B2, “Composition comprising HMSs/HMOs and use thereof” (Glycom A/S, priority 2014, dated 2024)

Legend:
[1] = system: human LS174T cell culture model of goblet cells; assay: Mucosal barrier function: goblet cell gene expression by quantitative RT-PCR; format: cell-based; details: 5 mg HMO/ml, compared to control cultures
Protocol: 2′-FL and LNnT are tested with respect to their ability to induce MUC2, TFF3, EIMβ, CHST5, and GAL3ST2 expression in the human LS174T cell culture model of goblet cells. The human LS174T cell line is obtained from the American Type Culture Collection (ATCC). LS174T cells are maintained in minimum essential medium (MEM) supplemented according to instructions at 37° C. in 5% CO2. 2′-FL and LNnT are dissolved in cell culture grade water to the required concentration. The LS174T cells are treated with the HMO solution containing 0 or 5 mg HMO/ml. The LS174T cells are collected and suspended in Trizol reagent and total RNA is isolated using an RNA analysis kit (Qiagen) according to the manufacturer's instructions and the RNA isolates are quantified using Nanodrop analysis (Thermo Fisher Scientific). RNA isolates are reverse transcribed using a high capacity cDNA Reverse Transcription Kit (Applied Biosystems) to create cDNA, which is then used to assess gene expression via quantitative RT-PCR. For the quantitative RT-PCR, specific TaqMAN gene expression assays are obtained from Applied Biosystems, which include expression assays for MUC2, TFF3, CHST5 and GAL3ST2. Quantitative real-time PCR is performed using TaqMAN PCR Master Mix (Applied Biosystems). Reactions are run in duplicates in a 384-well plate using an Applied Biosystems 7900HT Fast Real-Time PCR System. The results are analysed using SDS 2.3 software and calculated by delta delta Ct method. All samples are normalized to Gus-β expression and fold induction is calculated over untreated controls. Gene expression is expressed as fold increase compared to HMO-free control cells. The experiment is repeated three times.

[2] = system: IBS-D patients; details: cited from earlier work

Molecule | expression of the MUC2 gene [1] | expression of the TFF3 gene [1] | induction of CHST5 [1] | induction of GAL3 ST2 [1] | bowel movement [2]
2′-fucosyllactose [2′-FL] | increases | increases | minimal induction | lack of induction | 
CC(=O)N[C@H]1[C@H](O[C@H]2[C@@H](O)[C@@H](CO)O[C@@H](O[C@H]3[C@H](O)[C@@H](O)C(O)O[C@@H]3CO)[C@@H]2O)O[C@H](CO)[C@@H](O[C@@H]2O[C@H](CO)[C@H](O)[C@H](O)[C@H]2O)[C@@H]1O (mixture of isomers) [LNnT, lacto-N-neotetraose] | increases | increases | minimal induction | lack of induction | 
CO[C@H]1/C=C/O[C@@]2(C)Oc3c(C)c(O)c4c(O)c(c5c(nc6cc(C)ccn65)c4c3C2=O)NC(=O)/C(C)=C\C=C\[C@H](C)[C@H](O)[C@@H](C)[C@@H](O)[C@@H](C)[C@H](OC(C)=O)[C@@H]1C [rifaximin] |  |  |  |  | reduce
